Reference: patent US12473304B2, “Heterocyclic PAD4 inhibitors” (BRISTOL-MYERS SQUIBB COMPANY, priority 2020, dated 2025)

Target: recombinant human PAD4 (Homo sapiens (Human), UniProt Q9UM07)
Experiment: RFMS Human PAD4 Functional Assay 2
Format: biochemical
Conditions: RFMS assay 2; 35 nM recombinant human PAD4, 500 μM TSTGGRQGSHH peptide, 2 mM CaCl2, room temperature 30 minutes; read-out: hPAD4 RFMS IC50
Experimental: RFMS Human PAD4 Functional Assay 2: Compound Preparation: • Stock compounds were dissolved and stored in 100% DMSO. Compound solutions were prepared via serial dilution at 3-fold intervals in DMSO with top compound concentration at 20 μM in each assay. 0.25 μl of compound solution was transferred from the compound plate to the assay plate by using an acoustic dispenser. Final Assay Conditions: • Total reaction volume: 25 μl • Assay buffer: […] pH 7.4, 200 mM NaCl, 2 mM CaCl2, 5 mM DTT • 35 nM recombinant human PAD4 • 500 μM TSTGGRQGSHH peptide • […] DMSO • Stop solution: 10% formic acid
Reaction mixtures were incubated at room temperature for 30 minutes. 10 μl each of the reaction mixtures was then mixed with 40 μl of 10% formic acid in a microtiter plate. The plate was frozen at −80° C. before shipping out on dry ice for RapidFire mass spectroscopy analysis.
Thawed samples were loaded onto the Rapid Fire 300 system (Agilent) wherein they were first sipped for 250 ms and then loaded onto an Agilent “C” (C18) cartridge using a mobile phase of water containing 0.09% formic acid/0.01% trifluoroacetic acid for 3000 ms desalting flowing at a rate of 1.5 ml/min. Once the samples were loaded and washed, a mobile phase of acetonitrile containing 0.09% formic acid/0.01% trifluoroacetic acid was used to elute the samples directly onto a Sciex API4000 triple quadrupole mass spectrometer for 3000 ms at a flow rate of 1.25 ml/min.
MRM transitions for substrate and product were monitored in positive ESI mode at m/z=562.3/969.7 and m/z=562.8/541.3 respectively. The dwell time for each transition was set at 100 ms, and the ESI voltage was used at 5500 with a source temperature of 650° C. Extracted ion peaks for each transition were integrated using the Rapid Fire Integrator software.

Sequence of recombinant human PAD4 (Q9UM07 whole entry): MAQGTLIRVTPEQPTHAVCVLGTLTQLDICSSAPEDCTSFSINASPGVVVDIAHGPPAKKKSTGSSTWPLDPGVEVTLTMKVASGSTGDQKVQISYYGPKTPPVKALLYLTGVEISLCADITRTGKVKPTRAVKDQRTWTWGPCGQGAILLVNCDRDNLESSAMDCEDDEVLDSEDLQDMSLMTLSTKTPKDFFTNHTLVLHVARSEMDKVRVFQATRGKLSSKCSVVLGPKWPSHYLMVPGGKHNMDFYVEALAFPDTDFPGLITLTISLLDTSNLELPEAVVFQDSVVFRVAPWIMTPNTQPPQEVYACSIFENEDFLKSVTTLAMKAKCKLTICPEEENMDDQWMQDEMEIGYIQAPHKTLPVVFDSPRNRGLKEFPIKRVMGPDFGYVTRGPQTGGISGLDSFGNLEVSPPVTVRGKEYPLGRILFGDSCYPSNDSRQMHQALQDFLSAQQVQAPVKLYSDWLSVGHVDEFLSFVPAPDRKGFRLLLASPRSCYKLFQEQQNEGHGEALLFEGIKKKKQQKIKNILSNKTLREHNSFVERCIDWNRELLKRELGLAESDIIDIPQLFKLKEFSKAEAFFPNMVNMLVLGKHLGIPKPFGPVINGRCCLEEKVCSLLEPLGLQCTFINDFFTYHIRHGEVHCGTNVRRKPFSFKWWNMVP

| Compound | IC50 [nM] |
| --- | --- |
| COc1cc(C(=O)N2CCC[C@@H](N)C2)cc2sc(-c3cc4ccccc4n3CC3CC3)c(CCO)c12 [Example 622, (R)-(3-aminopiperidin-1-yl)(2-(1-(cyclopropylmethyl)-1H-indol-2-yl)-3-(2-hydroxyethyl)-4-methoxybenzo[b]thiophen-6-yl)methanone] | 1200 |
| COc1cc(C(=O)N2C[C@H](N)C[C@@H](F)C2)cc2sc(-c3cc4ccccc4n3CC3CC3)c(CCO)c12 [Example 623, ((3R,5R)-3-amino-5-fluoropiperidin-1-yl)(2-(1-(cyclopropylmethyl)-1H-indol-2-yl)-3-(2-hydroxyethyl)-4-methoxybenzo[b]thiophen-6-yl)methanone] | 395 |
| COc1ccc2cc(-c3sc4cc(C(=O)N5C[C@H](N)C[C@@H](F)C5)cc(OC)c4c3CCO)n(CC3CC3)c2c1 [Example 624, ((3R,5R)-3-amino-5-fluoropiperidin-1-yl)(2-(1-(cyclopropylmethyl)-6-methoxy-1H-indol-2-yl)-3-(2-hydroxyethyl)-4-methoxybenzo[b]thiophen-6-yl)methanone] | 383 |
| COc1cc(C(=O)N2CCC[C@@H](N)C2)cc2sc(-c3cc4ccccc4n3CC3CC3)c(CCN)c12 [Example 625, (R)-(3-(2-aminoethyl)-2-(1-(cyclopropylmethyl)-1H-indol-2-yl)-4-methoxybenzo[b]thiophen-6-yl)(3-aminopiperidin-1-yl)methanone] | 2040 |
| Cc1c(-c2cc3ccccc3n2CC2CC2)sc2cc(C(=O)N3CCC[C@@H](N)C3)cc(CCO)c12 [Example 626, (R)-(3-aminopiperidin-1-yl)(2-(1-(cyclopropylmethyl)-1H-indol-2-yl)-4-(2-hydroxyethyl)-3-methylbenzo[b]thiophen-6-yl)methanone] | 849 |
| Cc1c(-c2cc3ccccc3n2CC2CC2)sc2cc(C(=O)N3CCC[C@@H](N)C3)cc(CO)c12 [Example 627, (R)-(3-Aminopiperidin-1-yl)(2-(1-(cyclopropylmethyl)-1H-indol-2-yl)-4-(hydroxymethyl)-3-methylbenzo[b]thiophen-6-yl)methanone] | 879 |
| COc1ccc2cc(-c3oc4cc(C(=O)N5C[C@H](N)C[C@@H](F)C5)cc(OC)c4c3CCO)n(CC3CC3)c2c1 [Example 628, ((3R,5R)-3-Amino-5-fluoropiperidin-1-yl)(2-(1-(cyclopropylmethyl)-6-methoxy-1H-indol-2-yl)-3-(2-hydroxyethyl)-4-methoxybenzofuran-6-yl)methanone] | 322 |
| COc1cc(C(=O)N2C[C@H](N)C[C@@H](F)C2)cc2oc(-c3cc4cccnc4n3CC3CC3)c(CCO)c12 [Example 629, ((3R,5R)-3-amino-5-fluoropiperidin-1-yl)(2-(1-(cyclopropylmethyl)-1H-pyrrolo[2,3-b]pyridin-2-yl)-3-(2-hydroxyethyl)-4-methoxybenzofuran-6-yl)methanone] | 785 |
| COc1cc(C(=O)N2C[C@H](N)C[C@@H](F)C2)cc2oc(-c3cc4ccccc4n3CC3CC3)c(CCO)c12 [Example 630, ((3R,5R)-3-amino-5-fluoropiperidin-1-yl)(2-(1-(cyclopropylmethyl)-1H-indol-2-yl)-3-(2-hydroxyethyl)-4-methoxybenzofuran-6-yl)methanone] | 288 |
| CN[C@@H]1C[C@@H](F)CN(C(=O)c2cc(OC)c3c(CCO)c(-c4cc5ccccc5n4CC4CC4)oc3c2)C1 [Example 631, (2-(1-(cyclopropylmethyl)-1H-indol-2-yl)-3-(2-hydroxyethyl)-4-methoxybenzofuran-6-yl)((3R,5R)-3-fluoro-5-(methylamino)piperidin-1-yl)methanone] | 7580 |
| COc1cc(C(=O)N2C[C@H](N)C[C@@H](F)C2)cc2oc(-c3cc4cccc(OC)c4n3CC3CC3)c(CCO)c12 [Example 632, ((3R,5R)-3-amino-5-fluoropiperidin-1-yl)(2-(1-(cyclopropylmethyl)-7-methoxy-1H-indol-2-yl)-3-(2-hydroxyethyl)-4-methoxybenzofuran-6-yl)methanone] | 327 |
| COc1cc(C(=O)N2C[C@H](N)C[C@@H](F)C2)cc2oc(-c3cc4cccc(OCC5CNC(=O)C5)c4n3CC3CC3)c(CCO)c12 (stereo partly drawn) [Example 633, 4-(((2-(6-((3R,5R)-3-amino-5-fluoropiperidine-1-carbonyl)-3-(2-hydroxyethyl)-4-methoxybenzofuran-2-yl)-1-(cyclopropylmethyl)-1H-indol-7-yl)oxy)methyl)pyrrolidin-2-one] | 179 |
| COc1cc(C(=O)N2C[C@H](N)C[C@@H](F)C2)cc2oc(-c3cc4cccc(OCCO)c4n3CC3CC3)c(CCO)c12 [Example 634, ((3R,5R)-3-amino-5-fluoropiperidin-1-yl)(2-(1-(cyclopropylmethyl)-7-(2-hydroxyethoxy)-1H-indol-2-yl)-3-(2-hydroxyethyl)-4-methoxybenzofuran-6-yl)methanone] | 209 |
| COc1cc(C(=O)N2C[C@H](N)C[C@@H](F)C2)cc2oc(-c3cc4cccc(OCCn5cncn5)c4n3CC3CC3)c(CCO)c12 [Example 635, (2-(7-(2-(1H-1,2,4-triazol-1-yl)ethoxy)-1-(cyclopropylmethyl)-1H-indol-2-yl)-3-(2-hydroxyethyl)-4-methoxybenzofuran-6-yl)((3R,5R)-3-amino-5-fluoropiperidin-1-yl)methanone] | 216 |
| COc1cc(C(=O)N2C[C@H](N)C[C@@H](F)C2)cc2oc(-c3cc4cccc(OCC5CNC5)c4n3CC3CC3)c(CCO)c12 [Example 636, ((3R,5R)-3-amino-5-fluoropiperidin-1-yl)(2-(7-(azetidin-3-ylmethoxy)-1-(cyclopropylmethyl)-1H-indol-2-yl)-3-(2-hydroxyethyl)-4-methoxybenzofuran-6-yl)methanone] | 277 |

Target: human PAD4 (hPAD4) (Homo sapiens (Human), UniProt Q9UM07)
Experiment: RFMS Human PAD4 Functional Assay 1
Format: biochemical
Conditions: RFMS assay 1; 5 nM hPAD4, 250 μM BAEE substrate, 50 μM calcium, 37° C.
Outline: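 Recombinant hPAD4 (5 nM) was preincubated with compound (top 50 μM, 0.5% DMSO) for 30 min at 37 °C, then reacted with 250 μM BAEE for 90 min at 37 °C in pH 7.5 HEPES buffer with 50 μM calcium and 5 μM TPEN. Product was derivatized with phenyl glyoxal and quantified by RapidFire MS.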

Sequence of human PAD4 (hPAD4) (Q9UM07 whole entry): as above

| Compound | IC50 [nM] |
| --- | --- |
| Cc1c(-c2cc3ccnc(OCCn4ccnc4C)c3n2CC2CC2)nn2cc(C(=O)N3CCC[C@@H](N)C3)ccc12 [Example 612, (R)-(3-Aminopiperidin-1-yl)(2-(1-(cyclopropylmethyl)-7-(2-(2-methyl-1H-imidazol-1-yl)ethoxy)-1H-pyrrolo[2,3-c]pyridin-2-yl)-3-methylpyrazolo[1,5-a]pyridin-6-yl)methanone] | 2960 |
| Cc1c(-c2cc3ccnc(OCCn4cnnc4)c3n2CC2CC2)nn2cc(C(=O)N3C[C@H](N)C[C@@H](F)C3)ccc12 [Example 613, (2-(7-(2-(4H-1,2,4-Triazol-4-yl)ethoxy)-1-(cyclopropylmethyl)-1H-pyrrolo[2,3-c]pyridin-2-yl)-3-methylpyrazolo[1,5-a]pyridin-6-yl)((3R,5R)-3-amino-5-fluoropiperidin-1-yl)methanone] | 250 |
| Cc1c(-c2cc3ccnc(OCCn4ccnc4)c3n2CC2CC2)nn2cc(C(=O)N3C[C@H](N)C[C@@H](F)C3)ccc12 [Example 616, (2-(7-(2-(1H-Imidazol-1-yl)ethoxy)-1-(cyclopropylmethyl)-1H-pyrrolo[2,3-c]pyridin-2-yl)-3-methylpyrazolo[1,5-a]pyridin-6-yl)((3R,5R)-3-amino-5-fluoropiperidin-1-yl)methanone] | 20 |
| Cc1c(-c2cc3ccnc(OCCn4ccnc4)c3n2CC2CC2)nn2cc(C(=O)N3CCC[C@@H](N)C3)ccc12 [Example 617, (R)-(2-(7-(2-(1H-lmidazol-1-yl)ethoxy)-1-(cyclopropylmethyl)-1H-pyrrolo[2,3-c]pyridin-2-yl)-3-methylpyrazolo[1,5-a]pyridin-6-yl)(3-aminopiperidin-1-yl)methanone] | 10 |
| COc1cc(C(=O)N2C[C@H](N)C[C@@H](F)C2)cn2nc(-c3cc4ccnc(OCCn5cnnc5)c4n3C)c(C)c12 [Example 620, (2-(7-(2-(4H-1,2,4-Triazol-4-yl)ethoxy)-1-methyl-1H-pyrrolo[2,3-c]pyridin-2-yl)-4-methoxy-3-methylpyrazolo[1,5-a]pyridin-6-yl)((3R,5R)-3-amino-5-fluoropiperidin-1-yl)methanone] | 450 |
| COc1cc(C(=O)N2C[C@H](N)C[C@@H](F)C2)cn2nc(-c3sc4cccc(-c5cnn(CCO)c5)c4c3CC3CC3)c(C)c12 [Example 621, ((3R,5R)-3-Amino-5-fluoropiperidin-1-yl)(2-(3-(cyclopropylmethyl)-4-(1-(2-hydroxyethyl)-1H-pyrazol-4-yl)benzo[b]thiophen-2-yl)-4-methoxy-3-methylpyrazolo[1,5-a]pyridin-6-yl)methanone] | 140 |
